In paper PMC4350332 (Oncotarget, 2014):

How the values were obtained:
[1] = system: HFF cells; experiment: Sulforhodamine B cytotoxicity, HFF cells; format: cell-based, human; settings: all of the conditions tested, 120 h
Description: Compound cytotoxicity was determined using the Sulforhodamine B assay for cells cultured as a monolayer as described previously (45). For spheroid growth experiments, PC-3 cells were seeded (500 cells/well) into 96 well round bottom plates (Corning Costar 7007) in RPMI-1640 media containing 2.5% (w/v) Matrigel (BD Biosciences). […] Spheroid volumes were determined by obtaining diameter measurements from images taken on a Zeiss Axiovert 200M inverted microscope using the axiovision software. […]
oncogenic KRAS(G13D) and BRAF(V600E) mutations. A and B, Cell lines harboring a KRAS(G13D) mutation (HCT-116, DLD-1 and MDA-MB-231), wild-type KRAS (MDA-MB-453) or a BRAF(V600E) mutation (A2058 and A375) were seeded into 96 well plates. The […]
DMSO in different culture conditions for 120 h. Cell mass was determined using the suforhodamine B assay. Norm = glucose-free media supplemented with 10% FCS and 2 g/L D-glucose; VLG (very low glucose) = 0.1 g/L D-glucose; LS (low serum) = 0.5% FCS.
Experiments were performed in triplicate. Error bars represent standard deviation of the […]
(1 picture or pasted object on this page, not shown here)

[2] = system: PC-3, K562, Jurkat and MDA-MD-453 cell lines; experiment: Growth in D-glucose or D-galactose media (Sulforhodamine B); format: cell-based; settings: 20 μM, 96 h
Description: transformed and additional cancer cell lines. A, The indicated cell lines were seeded into
relevant media containing either 2 g/L D-glucose or D-galactose for 96 h. Cell mass was determined using the sulforhodamine B assay. Results are expressed as the percentage change vs DMSO control values for cells incubated in D-glucose containing media.
Experiments were performed in triplicate (A & C) or quadruplicate (B). Error bars represent standard deviation of the mean (*, P < 0.01).

[3] = system: PC-3, SW-1088, UM-22B and MEF cell lines; experiment: Sulforhodamine B cytotoxicity, cell line set; format: cell-based
Description: Compound cytotoxicity was determined using the Sulforhodamine B assay for cells cultured as a monolayer as described previously (45). For spheroid growth experiments, PC-3 cells were seeded (500 cells/well) into 96 well round bottom plates (Corning Costar 7007) in RPMI-1640 media containing 2.5% (w/v) Matrigel (BD Biosciences). […] Spheroid volumes were determined by obtaining diameter measurements from images taken on a Zeiss Axiovert 200M inverted microscope using the axiovision software.

[4] = system: Jurkat cells; experiment: 13C-NMR metabolite analysis in Jurkat cells; format: cell-based; settings: 20 μM
Description: Jurkat cells (5 X 106) were pre-treated in RPMI-1640 media containing either DMSO or 20
μM VER-00246608 for 1 h. The cells were then pelleted and washed in PBS containing
DMSO/compound and re-suspended in glucose-free RPMI-1640 media containing 10% FCS
cell suspension was then transferred to a 5mm NMR tube and placed into the sample probe of
a Bruker DRX600 NMR spectrometer. The probe was pre-equilibrated to 37°C and shimmed
on a matched sample. Pulses were also calibrated on the matched sample. The sample
containing the Jurkat cells was rapidly shimmed and data acquisition initiated within 15
1D 13C NMR spectra (240ppm sweep width, 64k acquired points, 64 scans) were then
acquired at 10 minute intervals up to 2 h. The glucose and lactate peaks were converted to
concentrations by referencing to a cell-free reference sample containing the same
concentration of 1,6-13C-D-Glucose (11 mM).
D, Jurkat cells (5 X 106) were pre-treated in RPMI-
suspension in glucose-free RPMI-1640 media supplemented with 2 g/L 1,6-13C-D-Glucose followed by kinetic acquisition of 13C-NMR spectra at 10 min intervals. Representative curves from duplicate treatments are shown.

[5] = system: PC-3 cells; experiment: Potentiation assay with cancer therapeutic agents, PC-3; format: cell-based
Description: (§1) The cells were then incubated for 120 h followed by cell mass determination using the Sulforhodamine B assay. […] Drug interactions were analyzed by the combination index (CI) method based on the method described by Chou. CI values <0.9 indicates synergism, 0.9 to 1.1 additivity, and >1.1 antagonism. The data was expressed in the form of Fa-CI simulation plot generated using calcusyn software (Biosoft). Potentiation assays were carried out as described previously.

[6] = system: PC-3 cells; experiment: Combination index analysis and potentiation with β-Chloro-alanine; format: cell-based; settings: 20 μM VER-246608
Description: as §1

[7] = molecular target: T1, PDK-1 (Homo sapiens, UniProt Q15118); experiment: Isothermal calorimetry (ITC) binding affinity; set-up: PDK-1: residues 30-436; made in house; host or cells: E. coli BL21
[8] = molecular target: T2, PDK-4 (Homo sapiens, UniProt Q16654); experiment: DELFIA-based enzyme functional assay (E1 substrate), PDK-4; format: biochemical; settings: data not shown
T2 construct: PDK-4: residues 1-412; made in house; host or cells: E. coli BL21

[9] = molecular target: T3, PDK-3 (Homo sapiens, UniProt Q15120); experiment: DELFIA-based enzyme functional assay (E1 substrate), PDK-3; format: biochemical; settings: data not shown
T3 construct: PDK-3: residues 9-406; made in house; host or cells: E. coli BL21

[10] = molecular target: T1, PDK-1; settings: read-out: In vitro functional (E1/E2), IC50, PDK-1; E1/E2 as the substrate
Description: DELFIA assay reagents (assay buffer, wash buffer, enhancement solution and anti-rabbit IgG-Eu-N1 secondary antibody) and plates were obtained from Perkin Elmer (MD, USA). Test compounds were subjected to a 10 point tripling dilution in DMSO, diluted in MOPS buffer (60mM MOPS pH7.2, 15 mM Magnesium acetate, 60 mM KCl) and added to the enzyme mix (10 nM PDK-1, 2 and 3 or 20 nM PDK-4, 300nM E1, 0.1 mg/mL BSA, 1 mM DTT) in 96-well V-bottom plates (Greiner). The reaction was initiated by the addition of ATP to a final concentration of 5 μM followed by a 1 h incubation at 30°C. The reaction was then stopped by the addition of STOP solution (50 mM Carbonate-Bicarbonate Buffer, pH 9.6), and then transferred to 96 well DEFLIA yellow plates. The plates were then sealed and incubated o/n at 4°C. Detection and quantification of p(Ser^293)E1α levels was then achieved through incubation with anti-p(Ser^293)E1α primary antibody (Genescript) followed by anti-rabbit secondary IgG-Eu-N1 antibody and addition of enhancement solution as per the manufacturer's instructions. The time-resolved fluorescent signal was then measured using a Victor2 plate reader (Perkin Elmer). The data was fitted by non-linear regression using XLFIT4 within a custom ABASE (IDBS) protocol in order to determine IC50 values.

T1 sequence (Q15118 30-436): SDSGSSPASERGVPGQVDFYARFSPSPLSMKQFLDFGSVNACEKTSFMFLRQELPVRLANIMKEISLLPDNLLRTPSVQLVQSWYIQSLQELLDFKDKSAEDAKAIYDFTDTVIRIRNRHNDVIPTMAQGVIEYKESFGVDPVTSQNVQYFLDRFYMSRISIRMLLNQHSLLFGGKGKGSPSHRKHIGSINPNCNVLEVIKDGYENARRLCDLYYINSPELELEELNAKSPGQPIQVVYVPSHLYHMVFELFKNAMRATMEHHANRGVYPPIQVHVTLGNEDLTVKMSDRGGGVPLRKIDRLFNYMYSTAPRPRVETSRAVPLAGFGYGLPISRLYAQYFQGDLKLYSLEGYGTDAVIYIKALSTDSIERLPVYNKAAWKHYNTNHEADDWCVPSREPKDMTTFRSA
T3 sequence (Q15120 9-406): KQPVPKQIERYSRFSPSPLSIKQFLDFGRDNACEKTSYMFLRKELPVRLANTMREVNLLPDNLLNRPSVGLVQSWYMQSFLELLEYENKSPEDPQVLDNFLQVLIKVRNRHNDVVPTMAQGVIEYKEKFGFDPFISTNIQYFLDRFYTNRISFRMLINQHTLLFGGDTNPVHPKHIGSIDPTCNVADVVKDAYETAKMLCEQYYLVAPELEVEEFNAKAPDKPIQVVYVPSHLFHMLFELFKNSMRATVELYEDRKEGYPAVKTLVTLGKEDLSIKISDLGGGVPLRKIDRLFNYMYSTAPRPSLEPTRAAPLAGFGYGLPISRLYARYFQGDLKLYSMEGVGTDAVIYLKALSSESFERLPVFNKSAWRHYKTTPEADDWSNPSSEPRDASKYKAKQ
T2 sequence (Q16654 whole entry, the tested form may be a part): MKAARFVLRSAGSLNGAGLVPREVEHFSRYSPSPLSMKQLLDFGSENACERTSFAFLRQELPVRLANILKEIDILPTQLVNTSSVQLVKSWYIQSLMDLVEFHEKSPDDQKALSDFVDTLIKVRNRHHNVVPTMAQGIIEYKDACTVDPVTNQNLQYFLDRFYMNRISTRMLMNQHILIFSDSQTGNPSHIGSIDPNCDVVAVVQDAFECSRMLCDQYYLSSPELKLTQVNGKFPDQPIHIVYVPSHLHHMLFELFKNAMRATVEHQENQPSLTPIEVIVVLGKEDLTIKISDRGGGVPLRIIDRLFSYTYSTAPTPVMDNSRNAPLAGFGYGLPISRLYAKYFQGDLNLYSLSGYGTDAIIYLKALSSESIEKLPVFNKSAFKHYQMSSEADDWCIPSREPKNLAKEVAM

Compound | Activity against HFF cells [1] | Effect on growth in D-glucose or D-galactose containing media [2] | Compound potency under hypoxic conditions ([3]; 0.1% O2) | Cytotoxicity (reduced cell mass) in standard culture ([3]; Sulforhodamine B assay, standard media) | Decrease in the rate of D-glucose consumption [4] [%] | Decrease in the rate of L-lactate production [4] [%] | Potentiation of the remaining three agents (BEZ235, Cisplatin and 3-Bromopyruvate) [5] | Potentiation of doxorubicin ([5]; PC-3 cells) [fold] | Potentiation factor for β-Chloro-alanine [6] | Kd [7] [nM] | Stimulation of PDK-4 activity [8] | Stimulation of PDK-3 activity [9] | IC50 [10] [nM]
Cc1cnc(Cl)nc1-c1ccc(N(Cc2ccc(CNC(=O)C(F)F)cc2)C(=O)c2ccc(O)cc2O)cc1 [VER-246608] | largely inactive | little to no effect | no evidence of augmented compound potency | weakly cytotoxic | 23 | 25 | No evidence of potentiation | 2 | 1.8 ± 0.06 |  |  |  | 
C[C@@H]1CN(C(=O)[C@](C)(O)C(F)(F)F)[C@@H](C)CN1C(=O)c1ccc(C#N)cc1 [Nov3r, reference compound] |  |  |  |  |  |  |  |  |  | 8 | approximately 2 fold | approximately 2 fold | 3
